Laboratory results published in patent US20230381174A1, “THIONOESTER-DERIVATIVE OF RABEXIMOD FOR THE TREATMENT OF INFLAMMATORY AND AUTOIMMUNE DISORDERS” (Vironova Thionationl AB, priority 2020, published 2023).

Experiments:
[1] = system: collagen antibody induced arthritis (CAIA); assay: Collagen antibody induced arthritis (CAIA) mouse model; assay type: in vivo, mice (DBA/1); settings: for histological (IHC) score of front paws compared with vehicle: 20 mg/kg, at study termination, score 0-3, FIG. 8; for adverse effects from treatments: CAIA mice, any of the doses tested (5, 10, 20 mg/kg s.c.); for disease severity (macroscopic arthritis score) compared with vehicle: not significant
From the text: The collagen antibody induced arthritis (CAIA) arthritis in mice is a model independent of both B and T cells. CAIA is an acute model of arthritis and the disease is induced with antibodies to collagen type II. The antibodies bind to cartilage, leading to activation of the immune system followed by recruiting of macrophages and granulocytes to the joints. After an LPS boost at day five, disease progression starts and reaches a maximum around day 15. CAIA model: Mice (DBA/1, 8-10 weeks old) were weighed at day −1 for determination of mean weight of animals in the experiment and for composition of groups. Groups were mixed within cages to avoid cage effects. The mice were injected i.v. with a cocktail of four (4) monoclonal antibodies against collagen type II (2 mg/mouse) on day 0. Day 5 the mice were injected with LPS (50 μg/mouse) i.p., in order to boost the disease. Dose preparation of test items were performed daily in corn oil. Disease was evaluated daily from day 3 in a blinded fashion using a macroscopic scoring system of the four limbs ranging from 0 to 15 (1 point for each swollen or red toe, 1 point for a swollen or red mid foot digit or knuckle, 5 points for a swollen ankle) resulting in a maximum total score of 60 for each mouse. Due to ethical restrictions, animals with a score exceeding 45 were removed from the experiment. Immunohistochemistry: Front paws from animals, in the vehicle, Rabeximod (20 mg/kg) and the inventive compound (20 mg/kg) groups, were collected at termination of the animals. The paws were immediately transferred to 4% formaldehyde containing vials for immersion fixation. The tissues were fired for 24 hours and then transferred to 70% EtOH and stored at +4° C. until staining. Paws were decalcified, paraffin embedded, sectioned and stained for hematoxylin and eosin (H&E). Resulting slides were photographed at high resolution. Images were used for morphology analysis to study cartilage destruction and infiltration of inflammatory cells in the joints. An overall assessment for the whole paw were scored (0-3), including evaluation of synovial inflammation, synovial pannus formation and bone destruction. Graphs and statistical analysis were performed using Prism 8 for Mac OS X (GraphPad Software, San Diego, CA, USA). Results are presented as mean values±SEM, if not otherwise stated. Statistics were calculated using a two-tailed non-parametric Mann-Whitney test where p<0.05 was considered significant. * represents a p-value<0.05, ** represents a p-value<0.01 and *** represents a p-value<0.001.

[2] = system: Reactive Oxygen Species (ROS) production in PBMCs; assay: Isoluminol assay: ROS production in PMA-activated PBMCs; assay type: cell-based, human; settings: PBMCs activated with PMA at 30 ng/ml; luminescence measured over 25 minutes; FIGS. 1 and 2
From the text: Oxygen metabolism has an important role in the pathogenesis of both rheumatoid arthritis and multiple sclerosis. Reactive oxygen species (ROS) produced in the course of cellular oxidative phosphorylation, and by activated phagocytic cells during oxidative bursts, exceed the physiological buffering capacity and result in oxidative stress. The excessive production of ROS can damage protein, lipids, nucleic acids, and matrix components. ROS also serve as important intracellular signaling molecules that amplify the synovial inflammatory-proliferative response.
Frozen PBMCs, isolated from human blood (Blodcentralen, Lund, Sweden) through gradient centrifugation using Ficoll, were thawed quickly, activated with PMA at 30 ng/ml and treated with Rabeximod or the inventive compound, at different concentrations ranging from 12.5 μg/ml with 1:2 dose titrations over 8 steps. Controls included were DMSO control, PMA at 30 ng/ml and 0 μg/ml of test items. […] Cell concentration was determined using a Scepter cell counter (Millipore Merck, MA, USA) and diluted at 2×10^6 cells/ml when added to the assay plate. The luminescence signal was measured over 25 minutes.
ROS production was investigated after treatment with the inventive compound or Rabeximod at different concentrations ranging from 12.5 μg/ml with 1:2 dose titrations over 8 steps. Luminescence signal was measured over 25 minutes.

IL-1β = assay: LPS assay: IL-1β release in whole blood; assay type: cell-based, human; settings: LPS 500 ng/ml
Description: (§1) Inflammation can be induced in vitro by stimulation with LPS, manifested by the release of various cytokines. […] TNF-α, IL1β and IL-6 are important cytokines in the pathogenesis of RA and MS and therefore selected in this assay.
(§2) Whole blood was collected from an adult volunteer in Heparin tubes. LPS stimulation started within 60 minutes of blood draw. The blood was diluted with RPMI and then stimulated with LPS and incubated with different concentrations of either Rabeximod or the inventive compound. The samples were centrifuged and plasma harvested and analysed on Luminex to measure cytokines.
(§3) The release of cytokines and chemokines was investigated after stimulation of whole blood with LPS, and treatment with either the inventive compound or Rabeximod.

TNF-α = assay: LPS assay: TNF-α release in whole blood; assay type: cell-based, human; settings: LPS 500 ng/ml
Description: as §1, §2, §3

IL-6 = assay: LPS assay: IL-6 release in whole blood; assay type: cell-based, human; settings: LPS 500 ng/ml
Description: as §1, §2, §3

[3] = system: pristane-induced arthritis (PIA); assay: Pristane-induced arthritis (PIA) rat model; assay type: in vivo; settings: 20 mg/kg s.c. days 5, 7, 9, 11, 13, 15
From the text: Pristane-induced arthritis (PIA) in rats is an animal model that mimics the criteria used for diagnosis of rheumatoid arthritis (RA). PIA is one of the most reproducible models of RA with high incidence and little variation in severity. Disease is characterized by a pronounced T cell dependent inflammatory response resulting in inflammation of peripheral joints. Disease is induced with a single injection of pristane and has a highly reproducible onset of arthritis between day 8-12. The most severe phase of arthritis is often between day 15-25 after induction and experiment can be terminated after 25-30 days. For disease induction rats were anaesthetized with IsoFlo vet (3%) and oxygen. The root of the tail was cleaned with EtOH and pristane was injected subcutaneously (s.c.) (volume 200 μl) approximately 0.5 cm from the root of the tail. A slight pressure was put on the injection site for 10 seconds after injections to prevent leakage of oil. Rats were removed from anaesthetics and the breathing was monitored until recovery was ensured. […] Disease was evaluated 3 times per week in a blinded fashion from day 10 using a macroscopic scoring system of the four limbs ranging from 0 to (1 point for each swollen or red toe, 1 point for a swollen or red mid foot digit or knuckle, […]) resulting in a maximum total score of 60 for each rat. […]

[4] = lower concentrations (from 312.5 nM, below 5000 nM)

melting point [°C] | SMILES | histological (IHC) score of front paws compared with vehicle [1] | adverse effects from treatments [1] | disease severity (macroscopic arthritis score) compared with vehicle ([1]; all three doses (5, 10 and 20 mg/kg) s.c. every other day from day 5, six administrations, FIG. 7) | concentration that inhibits ROS production completely [2] [µg/mL] | level of IL-1β compared to Rabeximod (IL-1β; compound at 5000 nM, FIG. 5) | level of IL-1β compared to Rabeximod (IL-1β; [4]) | dose-response of arthritis severity compared to Rabeximod ([1]; 5, 10 and 20 mg/kg s.c.) | disease severity (macroscopic arthritis score) compared with vehicle ([1]; 10 and 20 mg/kg s.c. every other day from day 5, six administrations, FIG. 6) | level of TNF-α compared to Rabeximod (TNF-α; compound at 5000 nM, FIG. 3) | level of TNF-α compared to Rabeximod (TNF-α; [4]) | level of IL-6 compared to Rabeximod (IL-6; compound at 5000 nM, FIG. 4) | level of IL-6 compared to Rabeximod (IL-6; [4]) | RA score (macroscopic arthritis score) ([3]; all study time points measured, FIG. 9) | efficacy during the most severe phase of arthritis ([3]; compared with Rabeximod)
– | Cc1cc2nc3c4cc(Cl)ccc4n(CC(=O)NCCN(C)C)c3nc2cc1C [Rabeximod, 2-(9-chloro-2,3-dimethyl-6H-indolo[2,3-b]quinoxalin-6-yl)-N-(2-(dimethylamino)ethyl)acetamide] | No significant difference | No adverse effects | small decrease in disease severity | 12.5 | – | – | – | – | – | – | – | – | – | –
184 to 188 | Cc1cc2nc3c4cc(Cl)ccc4n(CC(=S)NCCN(C)C)c3nc2cc1C [inventive compound, 2-(9-chloro-2,3-dimethyl-6H-indolo[2,3-b]quinoxalin-6-yl)-N-(2-(dimethylamino)ethyl)ethanethioamide] | significantly lower | No adverse effects | – | 6.25 | significantly lower | trend of reduced cytokines levels | clear dose-response | small decrease in disease severity | significantly lower | trend of reduced cytokines levels | significantly lower | trend of reduced cytokines levels | slightly lower | better efficacy than Rabeximod
